A melting point of 130 to 133 °C was found for `COc1ccc(CN2C[C@H](C(=O)NO)NC2=O)cc1` [Example 4, (4R)-1-(4-Methoxybenzyl)-2-oxo-imidazolidine-4-carboxylic Acid Hydroxyamide] in this work.

— patent US6458822B2, “2-oxo-imidazolidine-4-carboxylic acid hydroxamide compounds that inhibit matrix metalloproteinases” (Pfizer Inc., priority 2000, dated 2002)
